# PMC12615385, “A combined chemo-enzymatic treatment for the oxidation of epoxy-based carbon fiber-reinforced polymers (CFRPs)” (Frontiers in Bioengineering and Biotechnology, 2025)
# B1: CueO (Escherichia coli K-12) (protein)
# chain: AERPTLPIPDLLTTDARNRIQLTIGAGQSTFGGKTATTWGYNGNLLGPAVKLQRGKAVTVDIYNQLTEETTLHWHGLEVPGEVDGGPQGIIPPGGKRSVTLNVDQPAATCWFHPHQHGKTGRQVAMGLAGLVVIEDDEILKLMLPKQWGIDDVPVIVQDKKFSADGQIDYQLDVMTAAVGWFGDTLLTNGAIYPQHAAPRGWLRLRLLNGCNARSLNFATSDNRPLYVIASDGGLLPEPVKVSELPVLMGERFEVLVEVNDNKPFDLVTLPVSQMGMAIAPFDKPHPVMRIQPIAISASGALPDTLSSLPALPSLEGLTVRKLQLSMDPMLDMMGMQMLMEKYGDQAMAGMDHSQMMGHMGHGNMNHMNHGGKFDFHHANKINGQAFDMNKPMFAAAKGQYERWVISGVGDMMLHPFHIHGTQFRILSENGKPPAAHRAGWKDTVKVEGNVSEVLVKFNHDAPKEHAYMAHCHLLEHEDTGMMLGFTV
# notes: codon-optimised synthetic gene in pET21a(+), E. coli T7 Shuffle, Ni-NTA purified; 50-60 kDa
# Legend:
# Settings in all cases: 0.1 M acetate buffer pH 4, 25 °C, 30 min
# [1] = test system: ItL-01
# [2] = test system: ItL-02
# [3] = test system: ItL-03
# [4] = substrate: CCn1c(=NN=c2sc3cc(S(=O)(=O)O)ccc3n2CC)sc2cc(S(=O)(=O)O)ccc21; test: purified protein; format: biochemical, Escherichia coli
Molecule,Km [1] [mM],Km [2] [mM],Km [3] [mM],Km [4] [mM],kcat [4] [s⁻¹]
"CCn1c(=NN=c2sc3cc(S(=O)(=O)O)ccc3n2CC)sc2cc(S(=O)(=O)O)ccc21 [ABTS, 2,2′-azino-bis(3-ethylbenzothiazoline-6-sulfonic acid)]",4.5 ± 1.42,3.64 ± 0.26,7.76,,
B1,,,,2.39 ± 0.23,0.0045 ± 0.0005
